Common to all, as to assay type: in vivo
Experiment [1] concerns increase in capillary permeability caused by septide (agonist of substance P). Nature of the experiment: Inhibition of the increase in capillary permeability caused by septide (Saria et al., adapted for the guinea-pig). The note with it: Cavia porcellus. From the text:
Study of certain isoindole derivatives of the general formula (IV) by the technique of A. Saria et al., Arch.

The test system of experiment [2] is hypotension induced by substance P. As to the kind of experiment: Antagonism of hypotension induced by substance P (Maggi et al.). The conditions noted are these: Cavia porcellus, iv; guinea-pig; hypotension induced by i.v. injection of 250 ng/kg of substance P; read-out: ED50, dose which reduces by 50% the hypotension. Here is the method:
Injection of substance P into the animal causes hypotension. The products studied by the technique of C. A. Maggi et al., J. Auton. Pharmac., 7, 11-32 (1987) show an antagonistic effect with respect to this hypotension in the guinea-pig. The ED50, the dose which reduces by 50% the hypotension induced by an i.v. injection of 250 ng/kg of substance P, is determined.

The subject of experiment [3] is bronchospasm induced by [Pro^9 ] substance P. As to the kind of experiment: Inhibition of bronchospasm induced by [Pro9] substance P (Konzett and Rossler). The note with it: Cavia porcellus, iv; guinea-pig; bronchospasm induced by 3 μg/kg i.v. of [Pro9] substance P; read-out: ED50, dose which reduces by 50% the bronchospasm. An excerpt: Injection of substance P causes a bronchospasm in the animal. The bronchoconstriction induced in vivo in the guinea-pig by injection of substance P or of a selective agonist of substance P: [Pro^9 ] substance P is studied by the technique of H. Konzett and R. Rosseler, Archiv. Exp. Path. Pharmak., 195, 71-74 (1940). This bronchoconstriction is inhibited by injection of a product of the general formula (IV), which is evidence of an antiasthmatic activity. The ED50, the dose which reduces by 50 % the bronospasm induced by 3 μg/kg i.v. of [Pro^9 ] substance P, is determined. In this technique, the ED50 of the product of Use Example 1 is 0.7 mg/kg i.v.

Experimental findings from patent publication US5463077A, “Perhydroisoindole derivatives and preparation” (Rhone-Poulenc Rorer S.A., priority 1992, dated 1995) are described below.

Structures are written as SMILES.

For orientation: ED50 means the dose that gives a 50% effect, or the effect in half of the subjects.

Regarding `COc1ccccc1[C@H](C)C(=O)N1C[C@@H]2[C@H](C1)C(c1ccccc1)(c1ccccc1)CC[C@@]2(O)c1ccccc1OC` [Use Example 1, (3aS,4S,7aS)-7,7-diphenyl-4-(2-methoxyphenyl)-2-[2-(2-methoxyphenyl)-(S)-propionyl]-perhydroisoindol-4-ol], the median effective dose (ED50) amounted to 0.04 mg/kg in experiment [1] (iv), 3.5 mg/kg in experiment [1] (po), 0.15 mg/kg in experiment [2] and 0.7 mg/kg in experiment [3].
